According to patent US20250009716A1, “NOVEL INHIBITORS OF CLAUDIN-1 FOR THERAPEUTIC INTERVENTIONS” (BOARD OF REGENTS OF THE UNIVERSITY OF NEBRASKA, priority 2021, published 2025):
“Also recorded” adds a separate entry of the source.

What was measured:
[1] = tested on: SW480claudin-1 cells xenograft tumors; assay: SW480claudin-1 xenograft tumor growth; format: in vivo
Description: (A) In-silico 3D-structure of claudin-1, cavities that can be targeted by small molecules were defined using Molegro Virtual Docker. (B) Cell survival assay showing effects of three different inhibitors (I1, I2 and 16). […] (C) Effect of 16 treatment (72 hours) upon resistance to anoikis in claudin-1 overexpressing SW480 cells and claudin-1 deficient HCT116 cells. (D) Effect of 16 treatment on cell invasion in SW480claudin-1 cells. (E) Effect of inhibitor 16 on xenograft tumors. […] Effect on tumor growth was monitored.
Tumor volume and weight were measured.
In vivo validation of the anti-tumorigenic and metastatic effects of 1-6 treatment: (i) Xenograft model. […] These studies are elaborated using claudin-1 positive (HT29, DLD-1, SW620 cells) and negative (HCT116, SW620ShRNA) for similar xenograft tumor growth studies (15,50). Luciferin expressing cells (established in our lab) are used to help examining longitudinal growth of these tumors using live mouse imaging.

[2] = tested on: SW480claudin-1 cells; assay: Resistance to anoikis in claudin-1 overexpressing cells; format: cell-based; settings: for effect on resistance to anoikis: 72 h treatment; for activity: FIG. 9, printed only as 'activity', kind of value not named
Description: (§1) The crystal structure of claudin-1 is unknown. Therefore, an in-silico protein folding program, YASARA, was used to identify an effective claudin-1 inhibitor. The resultant 3D-structure was then modeled using Molegro Virtual Docker (MVD) software program. These in-silico analyses identified putative cavities in the claudin-1 protein that can be targeted by small molecule inhibitors. Next, a 100K library of small molecules was screened in silico using the MVD. The top 10 inhibitors that bound to the Site #3 (targeting near c-terminal domain; the most accessible pocket; FIG. 2A) with the best binding energies were selected as hits and used for further testing. Screening of these inhibitors named Inihibitor-1 (1-1) to Inhibitor-10 (I-10) was done using SW480claudin-1, SW620 and control cells. Claudin-1 deficient HCT116 cells (WT-APC) or SW620shRNAcld-1 were used as negative controls. Resistance to anoikis and cell invasion was used as biological end-points in testing these inhibitors. […] 16 has the following structure:
(§2) To this end, a library of molecules was synthesized in order to develop an initial SAR evaluation. The first compounds tested eliminated the acylated (thio) urea as well as the napthyl group and evaluated just the urea/phenyl compounds (Compounds 1-6). The methoxy group of the naphthalene ring system was needed when the benzimidazole group was present (16 vs. Compound 8). […] The result of metabolic stability was expressed as the percentage of drug remaining at each time. […] To further determine the effect of PDS-0330 on p-Src expression and association, cells were treated with Compound 1, 16 and PDS-0330. Expression and association with p-Src was unaffected with Compound 1 (negative control). The specificity of PDS-0330 for CLDN1 was further confirmed by treating SW480^CLDN1, HCT116^CLDN2 (overexpressing another tight junction protein) or normal IEC-6 cells with PDS-0330 (FIG. 12).

[3] = biological target: T1, claudin-1/Src complex in SW480claudin-1 cells (Homo sapiens, UniProt O95832); assay: Claudin-1/Src association (proximity ligation assay, Co-IP); format: cell-based; settings: PLA, Co-IP or immuno-precipitation
T1 construct: claudin-1 was expressed in a non-metastatic CRC cell line, SW480 cells; expressed in transfected cells; host or cells: SW480 colorectal cancer cells expressing claudin-1 (SW480claudin-1)
T1 sequence (O95832 1-211): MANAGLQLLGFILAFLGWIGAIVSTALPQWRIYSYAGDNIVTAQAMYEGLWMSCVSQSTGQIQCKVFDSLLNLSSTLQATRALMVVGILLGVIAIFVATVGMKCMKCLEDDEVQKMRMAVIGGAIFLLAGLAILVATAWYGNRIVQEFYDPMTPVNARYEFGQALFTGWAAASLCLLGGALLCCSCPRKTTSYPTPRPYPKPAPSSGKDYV
Description: The CSC cells contribute to the generation of metastasis (16-19), and key CSC characteristics are highly relevant to metastasis, including invasive motility, and, resistance to apoptosis (20,21). […] Considering that chemoresistance is central to the CRC progression and metastasis, we further tested if adjuvant use of 16 with 5FU can have significant bearing upon these traits. Colon cancer cells were subjected to exogenous administration of 16 alone, or in combination with the 5-FU, the conventional anti-CRC drug. […] To further determine the mechanistic details the effect of 16 on association of claudin-1 and Src, SW480claudin-1 cells were treated with 16 or the vehicle and resultant cell lysate was subjected to Proximity ligation assay (PLA) or Co—IP.

[4] = tested on: p-Src and c-PARP in SW480claudin-1 overexpressing cells; assay: Expression of p-Src, Src and c-PARP; format: cell-based
Description: as §2
(§3) Furthermore, DLD-1 chemoresistant cells were treated with PDS-0330 and I-6. […] Based on the in vitro activity and metabolic stability, PDS-0330, and any potential new analogs will be evaluated in animal models to determine the pharmacokinetic properties and biodistribution as described in preliminary data.

[5] = tested on: DLD-1 chemoresistant cells; assay: p-Src and c-PARP expression in 5FU resistant cells; format: cell-based
Description: as §3

[6] = tested on: SW480claudin-1 cells; assay: Cell invasion assay; format: cell-based
Description: as §1
To this end, a library of molecules was synthesized in order to develop an initial SAR evaluation. The first compounds tested eliminated the acylated (thio) urea as well as the napthyl group and evaluated just the urea/phenyl compounds (Compounds 1-6). […] The result of metabolic stability was expressed as the percentage of drug remaining at each time. […]

Row | Compound | growth of xenograft tumors ([1]; 16 i.p. 10 mg/kg) | toxic effects on xenograft mice ([1]; 16 i.p. 10 mg/kg) | effect on resistance to anoikis [2] | activity [2] | claudin-1/Src (p-Src) association [3] | apoptosis (c-PARP) [4] | p-Src expression [4] | apoptosis (c-PARP) [5] | p-Src expression [5] | effect on cell invasion [6] | xenograft tumor growth ([1]; PDS-0330 ip, 2.5, 5 mg/kg) | activity improvement of PDS-0330 over 16 ([2]; 8.4 μM vs. 28.4 μM)
1 | COc1cc2ccccc2cc1C(=O)NC(=S)Nc1ccc(-c2nc3ccccc3[nH]2)cc1 [Compound 16] | significantly inhibited | did not observe any toxic effects | most effective | 28.4 µM | markedly suppressed; also recorded: reduced | increased apoptosis (c-PARP) | reduced p-Src expression | increase in apoptosis (c-PARP) | decrease in p-Src expression | most effective |  | 
2 | O=C(NC(=S)Nc1ccc(-c2nc3ccccc3o2)cc1)c1ccc2ccccc2c1 [PDS-0330] |  |  | most potent compound; also recorded: significantly inhibited | 8.4 µM | most potent effects; also recorded: inhibits Src association | most potent effects | most potent effects | increase in apoptosis (c-PARP) | decrease in p-Src expression | significantly inhibited | decrease in xenograft tumor growth | ~3 fold
